Assay: Human HepG2 cell viability assay in 384 well format
Assay type: toxicity, cell-based
Parameters: dose 125 nL, time 70.5 hour; concentration not given beside the values
Settings: HepG2 cells, read-out: Inhibition

Structure (SMILES) | cytotoxicity at 70.5 h [%]
Cc1cc2ncn(C(=O)N3CCOCC3)c2cc1C | -5.67
Cc1ccc2nc(C)cc(NCCNS(=O)(=O)c3cn(C)nc3C)c2c1 | 0.534
OC1(c2ccccc2F)CCN(Cc2ccccc2N2CCCC2)CC1 | 12.6
Cc1c(CN2CCCC(O)C2)[nH]c2ccc(F)cc12 (stereo not drawn) | 0.643
COc1ccc2c(c1)NC(C1CCN(C(=O)C(C)C)CC1)NS2(=O)=O (stereo not drawn) | -3.05
CCOCCCNS(=O)(=O)c1ccc2c(c1)NC(=O)C(C)O2 (stereo not drawn) | 12.7
CC(C)(C)OC(=O)N[C@@H]1C[C@@H](O)CN(C(=O)c2cccc(F)c2)C[C@H]1O | -3.14
CNc1cncc(C2CCN(S(C)(=O)=O)CC2)n1 | -2.96
Cc1cc(Oc2ccccc2)nc(C2CCCCN2)n1 (stereo not drawn) | 13.4
Cc1noc(C)c1CC(=O)NCC1(O)CCCN(c2ccccn2)C1 (stereo not drawn) | 13.4
NC(=O)c1cc(CC2CCCN(Cc3cnccn3)CC2)ncn1 (stereo not drawn) | -2.22
COCCNCc1cc2cc(C)cc(C)c2[nH]c1=O | -4.55
COCC(=O)N1CC(c2n[nH]cc2C)C1 | -6.26
Fc1ccccc1Oc1nccnc1C1CCCN(C2CCOCC2)C1 (stereo not drawn) | -9
Cc1cc(O)cc(C2CCCN2C(=O)c2ccn(C)n2)n1 (stereo not drawn) | 10.2
Cc1cc(=O)[nH]c(=O)n1Cc1ncc(-c2ccccc2C(=O)O)s1 | -0.441
COCCN1CCC(c2nc3cc(C)ccc3[nH]2)CC1 | -8.34
Cc1cc(C)nc(C2CCN(C3CCOCC3)C2)n1 (stereo not drawn) | -11.5
O=C(O)c1ccccc1-c1ccc(Cn2c(=O)cc[nH]c2=O)cc1 | -0.721
Oc1nc(C2CCN(Cc3ccccn3)CC2)cc2ccccc12 | 32.3
COc1cccc(CN2CCCC2c2cncc(Nc3nncs3)n2)c1 (stereo not drawn) | 12.9
c1ccc(CCN2CCCC2c2cncc(Nc3nncs3)n2)cc1 (stereo not drawn) | 10.6
O=C(c1cccc(O)n1)N1CCC(O)(CN2CCC(F)(F)CC2)C1 (stereo not drawn) | -8.18
CN(C)CC(=O)N1CCOCC(Cc2ccccn2)C1 (stereo not drawn) | -13.2

Structure (SMILES) | cytotoxicity at 70.5 h [%]
O[C@H]1CN(Cc2ccnc(N3CCCC3)n2)CC[C@@]12CCCO2 | -9.21
CCC(=O)N1CCC(c2nc(C)c3c(n2)N(C)CCC3)CC1 | -2.67
CC(=O)N1CCC(c2nccnc2Nc2cnccn2)CC1 | -10.2
Cc1cc(N2CCOC(c3ccc(C(N)=O)cn3)C2)ncn1 (stereo not drawn) | 19.9
Cn1ccc(NC(=O)CN2CCC(Oc3cnccn3)CC2)n1 | 1.93
O=C(NC[C@H]1CC[C@H](c2ccnc3ncnn32)CC1)C1CC1 | 22.4
CN1N=C(C(=O)NCCc2csc(-c3ccccc3)n2)CCC1=O | -4.18
CC(Cc1ccccc1F)C(=O)Nc1cccc(OCC(N)=O)c1 (stereo not drawn) | -2.21
Cc1ccc(C(=O)NS(=O)(=O)Cc2ccc(F)cc2)cc1S(C)(=O)=O | -3.12
NC(=O)N1CCC(NCc2cc(C(F)(F)F)ccc2Cl)CC1 | -5.57
O=C(CCc1nnc(-c2ccccc2)o1)N1CCCC1c1ccccn1 (stereo not drawn) | 1.97
Cc1ccc(O)c(CNc2cccc(CN3CCSCC3)c2)n1 | 1.03
CN(Cc1cnn(C)c1)CC(O)c1ccc2c(c1)OCCCO2 (stereo not drawn) | 17.4
CC(CNC(=O)c1cc(-n2cccn2)ccn1)Cn1ccnc1 (stereo not drawn) | -0.0471
Cc1c(C(=O)N(C)CC(F)(F)F)nnn1-c1ccccc1Cl | 6.88
CC(CNC(=O)c1cccc(-n2cccn2)c1)Cn1ccnc1 (stereo not drawn) | 2.48
CN(C)CCOc1ccccc1N1CCN(C(=O)C(C)(C)C#N)CC1 | -0.199
CN(C)c1ccc(CNC(=O)Nc2ccc(S(=O)(=O)C(F)F)cc2)cc1 | -0.147
COc1ccccc1N1CCN(C(=O)c2ccoc2)CC1 | -6.02
Cc1cccc(NCC(=O)NC2(C#N)CCCC2)c1C(=O)N1CCCC1 | 2.28
O=c1oc(-c2cccs2)nn1CC1(O)CCCCC1 | -1.35
CS(=O)(=O)c1ccc(NC(=O)NCc2ccc(F)cc2)cn1 | -0.885
COc1ccc(C(=O)Nc2nncs2)cn1 | 27.2
COc1cc(NCC(=O)NC(C)(C#N)C(C)C)cc(OC)c1OC (stereo not drawn) | -0.783

Structure (SMILES) | cytotoxicity at 70.5 h [%]
COc1ncccc1NC(=O)c1[nH]nc(C(C)C)c1Br | -8.6
Cn1ccnc1CN1CCCN(C(=O)C2(C#N)CCCCC2)CC1 | 1.4
CN(C)CCOc1ccccc1N1CCN(C(=O)c2ccoc2)CC1 | 2.2
CC(NC(=O)N1CCS(=O)(=O)CC1)c1ccc(F)cc1Cl (stereo not drawn) | -1.2
CC(CNC(=O)c1cccc(-n2cccn2)n1)Cn1ccnc1 (stereo not drawn) | -2.98
CC(C)c1cc(C(=O)N(c2ccc(F)cn2)C2CCOCC2)nn1C | 3.21
O=C(c1ccncc1F)N1CCOC(c2cccc(O)c2)C1 (stereo not drawn) | 2.22
COc1ccc(-c2nc(CSC3CCCCNC3=O)co2)cc1 (stereo not drawn) | -3.03
CCn1ccnc1CN1CCCN(C(=O)C2(C#N)CCCCC2)CC1 | -3.94
O=C(Cc1cccs1)N1CCOC(c2cccc(O)c2)C1 (stereo not drawn) | 0.631
COc1ccc(C)cc1C1(CNc2cn[nH]c(=O)c2Cl)CCOCC1 | -5.9
Cc1ccc(O)c(C(=O)NCCCS(=O)(=O)Cc2ccccc2)c1 | -11.4
NC(=O)CCOc1ccc(NC(=O)c2ccccc2OC(F)F)cc1 | 3.32
CCNC(=O)Nc1cccc(F)c1C(=O)NC1CCCC1 | -6.92
O=C(CCc1cc(Br)cs1)NCCCn1ccnc1 | 5.85
CCn1nnnc1-c1cccc(NC(N)=O)c1 | -5.79
CC1CS(=O)(=O)CCN1Cc1ccccc1OCC(F)(F)F (stereo not drawn) | -6.75
O=c1[nH]c(=O)n(CC(O)c2ccccc2Cl)cc1Cl (stereo not drawn) | -5.98
CC(C)NC(=O)CCNC(=O)CCc1cc(Br)cs1 | -6.47
CC(C)(C)c1ccc2c(c1)CCN2C(=O)c1nc(=O)[nH][nH]1 | 0.34
Cc1cncc(NCc2ccccc2N2CCOCC2)c1 | 3.08
O=S(=O)(c1ccccc1)N1CCCC(Cn2cncn2)C1 (stereo not drawn) | -4.76
CCC(C)C(=O)NCc1ccn(-c2ccc(F)cc2)n1 (stereo not drawn) | 8.14
O=C(Cc1ccc(F)cc1)NCc1ccc(C(=O)O)o1 | -2.52

Structure (SMILES) | cytotoxicity at 70.5 h [%]
O=C(C1CCOc2ccccc21)N1CCOc2ccc(F)cc21 (stereo not drawn) | -9.88
CC(C)n1nc2c(cc1=O)CN(CC1CCCCO1)CC2 (stereo not drawn) | -5.1
CCC(C(=O)NCc1ccn(-c2ccc(F)cc2)n1)N1CCCC1=O (stereo not drawn) | 5.43
CCN(Cc1ccoc1)C(=O)c1ccncc1O | -9.48
COc1ccc(NC(=O)c2cccc(OC)c2OC)cc1 | -3.77
CN(CC(=O)NCC(F)(F)F)Cc1cccc2c1OCCO2 | 14.8
CC(OCC1CC1)C(=O)Nc1nccn1Cc1ccccc1 (stereo not drawn) | -14.6
CN(Cc1cc(Br)c2c(c1)OCO2)Cc1cscn1 | -14.1
COc1cc(F)ccc1NC(=O)NC(C)C(=O)NC(C)(C)C (stereo not drawn) | -4.93
Cc1ccc(C)c(CC(=O)NC2CCS(=O)(=O)CC2)c1 | -10.2
Cc1noc(C)c1C(C)NC(=O)N1CCCN(C(=O)c2ccsc2)CC1 (stereo not drawn) | -13.8
CC(C)Nc1ncccc1C(=O)NC1CC(=O)N(CC(F)(F)F)C1 (stereo not drawn) | -2.71
CCCNC(=O)CCNC(=O)N1CCC(=Cc2ccccc2)CC1 | -4.61
NC(=O)C1CCCN1CCCc1ccc(C(F)(F)F)cc1 (stereo not drawn) | -5.39
CC(NC(=O)Nc1cccnc1N1CCOCC1)c1ccccn1 (stereo not drawn) | -8.36
CNC(=O)N1CCC(=Cc2ccccc2)CC1 | -12
NC(=O)C1CCN(CCCc2ccc(C(F)(F)F)cc2)CC1 | 3.34
Cc1ccc(CNC(=O)NC2CCC(O)CC2)c(N2CCCC2)c1 (stereo not drawn) | -10.5
Cc1ccc(CNC(=O)NCC(=O)NC(C)(C)C)c(N2CCCC2)c1 | -16.8
N#CC1(NC(=O)c2nccc3ccccc23)CCSCC1 | -9.79
CSC(C)C(=O)NS(=O)(=O)CCc1ccccc1 (stereo not drawn) | -2.58
CC(C)CC(CCO)CNC(=O)N1CCOC2(CCCC2)C1 (stereo not drawn) | -1.95
CCc1noc(C(C)N2CCN(CCc3ccncc3)CC2)n1 (stereo not drawn) | -5.36
CCn1ccnc1CN1CCN(C(C)C(=O)NCc2ccco2)CC1 (stereo not drawn) | 16.6

Structure (SMILES) | cytotoxicity at 70.5 h [%]
CC(C)n1cnnc1CNC(=O)c1cnc2ccccc2n1 | -3.77
OC1(CN2CCOC(Cn3cncn3)C2)CCCCC1 (stereo not drawn) | 2.37
O=C1CCN(C(=O)NCc2cccc(Oc3ccccc3)c2)CCN1 | -6.34
CC(C)(C)C1CCC(O)(CNC(=O)CCS(C)(=O)=O)CC1 (stereo not drawn) | -4.23
O=C1CCN(C(=O)NCc2ccccc2Oc2ccccc2)CCN1 | 2.87
CC(=O)NCCC(=O)NC(C)c1sc(-c2ccccc2F)nc1C (stereo not drawn) | -5.17
Cn1c(=O)n(C)c2cc(NS(=O)(=O)Cc3cccc(F)c3)ccc21 | -6.9
N#Cc1ccc(CN2CCN(c3cncc(Cl)n3)CC2=O)cc1 | -4.86
CCOc1ccc(Cl)c(C(=O)N2CCCC(c3cc(C)[nH]n3)C2)n1 (stereo not drawn) | -2.21
O=C(c1sccc1-n1cnnn1)N1CCC2(CCCCC2)CC1 | 11.8
CC(Cn1cncn1)NC(=O)N1CC2(CCCC2)c2ccccc21 (stereo not drawn) | -1.39
CNC(=O)C1CCCN1C(=O)NCCCc1cccc(F)c1 (stereo not drawn) | 1.01
Cc1cc(C(=O)Nc2ccc(-c3nnc(N(C)C)o3)cc2)oc1C | 14.7
O=C(NCc1ccc(Br)cc1)C1(O)CCSCC1 | -1.14
OC1(c2ccc(F)cc2)CCN(Cc2ccccc2N2CCCC2)CC1 | 52.6
COc1ccc(CN2CCc3sccc3C2C)cc1CN1CCOCC1 (stereo not drawn) | -0.0983
CC(C)c1[nH]c2ncccc2c1CN1CCOCC1 | 4.28
CNc1nc(C2CCCN2)nc2c1CCN(S(=O)(=O)C1CCCCC1)C2 (stereo not drawn) | 12.5
COc1cccc(Nc2nc(N3CCCC3)nc3c2CNCC3)c1 | 43.7
CCc1nccn1-c1cccc(C2CCCN2)n1 (stereo not drawn) | -1.73
Cn1nc(C2CNCCO2)cc1CCOc1ccc(Cl)cc1 (stereo not drawn) | 7.97
COCCCN(Cc1ccccn1)Cc1ccnn1C1CCCCO1 (stereo not drawn) | 13.4

From ChEMBL document CHEMBL3507680, “University of Dundee, Gates Library screen for HepG2 cell viability”
